Consider 36 compounds from patent US20230271949A1, “GLP-1R MODULATING COMPOUNDS” (ASCLETIS BIOSCIENCE CO., LTD., priority 2022, published 2023).

As a reminder, the EC50 is the concentration giving half of the maximal effect. Read a high EC50 as lower potency in that assay.

GLP-1R, sequence (P43220 24-463): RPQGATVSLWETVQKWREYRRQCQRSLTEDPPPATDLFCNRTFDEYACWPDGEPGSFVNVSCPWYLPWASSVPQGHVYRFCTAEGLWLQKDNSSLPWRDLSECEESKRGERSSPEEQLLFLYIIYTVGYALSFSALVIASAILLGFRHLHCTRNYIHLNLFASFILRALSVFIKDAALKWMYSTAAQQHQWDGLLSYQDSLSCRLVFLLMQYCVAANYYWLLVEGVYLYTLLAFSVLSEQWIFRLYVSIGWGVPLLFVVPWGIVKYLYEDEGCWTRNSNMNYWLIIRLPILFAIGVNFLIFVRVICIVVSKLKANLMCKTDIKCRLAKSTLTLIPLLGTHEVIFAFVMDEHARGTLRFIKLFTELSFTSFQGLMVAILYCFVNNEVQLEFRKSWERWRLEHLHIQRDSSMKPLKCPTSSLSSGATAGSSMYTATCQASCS

In this test the target is GLP-1R (Homo sapiens, UniProt P43220). Description: GLP-1R agonist cAMP stimulation assay (HTRF cAMP). The note with it: HEK293 cell line expressing GLP-1 target; HTRF cAMP agonist mode, 30 min at RT. Format: cell-based. As for the experimental part:
cAMP Detection Kit, Cisbio (Cat #62AM4PEJ)
The cell line was constructed by WuXi.
2. Methods • a) The compound source plate preparation: • The reference 7-37 was diluted from 500 nM, 4-fold, 10 points in DMSO using Bravo. The compounds were diluted from […], 3-fold, 10 points in DMSO using Bravo. • b) Transfer of compounds: • 1) Use Echo transfer 100 nL cpd to the OptiPlate-384 plate. • 2) Spin the plates at 1000 rpm for 5 sec. • c) Cell suspension preparation: • 1) Thaw 1 vial of GLP-1 cells rapidly in 37° C. water bath. • 2) Transfer cell suspension into 10 ml of HBSS in a 15 ml conical tube. • 3) Centrifuge cells at 1000 rpm for 5 min at room temperature to pellet cells • 4) Gently aspirate supernatant being careful not to aspirate cells. • 5) Flick pellet to loose cells and re-suspend the cell pellet in 10 ml HBSS. Use a sterile pipette to pipette up and down to dislodge clumps. • 6) Count cells for concentration and to determine cell viability on Vi-cell. • 7) Re-suspend the GLP-1 cells in assay buffer at a concentration of 1.0×E5/mL cells. • 8) Transfer 10 μL GLP-1 cells to OptiPlate-384 plate. • d) HTRF cAMP Assay for agonist: • 1) Incubate the plate at RT for 30 min before adding the detection reagent. • 2) Add 10 μL each of detection reagent using Electric Multiple Channel Pipette. • 3) Cover the 384 plate with TopSeal-A film and incubate for 60 minutes at room temperature. • Remove the TopSeal-A, read on EnVision.
Create a new log (Inhibitor) vs response—Variable slope mode in Prism5.0 software, substitute the standard curve concentration (x) and its corresponding 665/615 data (y) into the model, convert the standard curve concentration (abscissa) by x=log(x), and make the standard curve through the converted xy.
Transform the data of 665/615 in the whole plate into a column of data, substitute it into y in the table of standard curve concentration (x) and 665/615 data (y), copy the x (interpolatedx) corresponding to automatic conversion by the software into a table, convert it into cAMP level by the formula x=10^(x), and reset the data into 384 distribution.
% Activity=(cAMP level−LC)/(HC−LC)*100% • Z factor: 1-3*(STD_HC+[…])/(HC-LC) • Assay Window: HC/LC • LC: The average cAMP level of adding DMSO wells • HC: The average cAMP level of adding the top concentration of reference compounds wells.
Create a new […] in Prism5.0 software, substitute the sample concentration (x) and its corresponding % Activity data (y) into the model, convert the standard curve concentration (abscissa) to x=log(x), and make the sample curve through the converted xy.
For orientation: In TR-FRET formats the signal depends on donor and acceptor labels being close together.
Take `COCCn1c(CN2CCC(c3cccc(OCc4ccc(Cl)cc4F)n3)CC2)nc2cc(C(=O)NCC(=O)c3ccc(O)c(O)c3)ccc21` [Compound 42]: the EC50 is over 10000 nM.
Then `COCCn1c(CN2CCC(c3cccc(OCc4ccc(Cl)cc4F)n3)CC2)nc2cc(C(=O)NC3Cc4cc(C)c(O)cc4C3)ccc21` (stereo not drawn) [Compound 43], with 256 nM; and `N#Cc1ccc(COc2cccc(C3CCN(Cc4nc5cc(C(=O)NCC(=O)N6C[C@@H](F)C[C@H]6C(=O)O)ccc5n4C[C@@H]4CCO4)CC3)n2)c(F)c1` [Compound 44], with 4.36 nM.
The figure for `O=C(NCC(=O)N1C[C@@H](O)C[C@H]1C(=O)O)c1ccc2c(c1)nc(CN1CCC(c3cccc(OCc4ccc(Cl)cc4F)n3)CC1)n2C[C@@H]1CCO1` [Compound 45] is 1.39 nM; for `O=C(NCC(=O)N1C[C@H](O)C[C@@H]1C(=O)O)c1ccc2c(c1)nc(CN1CCC(c3cccc(OCc4ccc(Cl)cc4F)n3)CC1)n2C[C@@H]1CCO1` [Compound 46] it is 42.4 nM.
The figure for `COC(=O)[C@@H]1C[C@H](O)CN1C(=O)CNC(=O)c1ccc2c(c1)nc(CN1CCC(c3cccc(OCc4ccc(C#N)cc4F)n3)CC1)n2C[C@@H]1CCO1` [Compound 47] is 9.6 nM; for `O=C(NCC(=O)N1C[C@@H](F)C[C@H]1C(=O)O)c1ccc2c(c1)nc(CN1CCC(c3cccc(OCc4ccc(Cl)cn4)n3)CC1)n2C[C@@H]1CCO1` [Compound 48] it is 4.36 nM; for `O=C(CNC(=O)c1ccc2c(c1)nc(CN1CCC(c3cccc(OCc4ccc(Cl)cc4F)n3)CC1)n2C[C@@H]1CCO1)N[C@@H](CO)C(=O)O` [Compound 49] it is 2.47 nM.
`O=C(O)CNC(=O)c1ccc2c(c1)nc(CN1CCC(c3cccc(OCc4ccc(Cl)cc4F)n3)CC1)n2C[C@@H]1CCO1` [Compound 50] showed a half-maximal effective concentration (EC50) of 34 nM.
Then `O=C(N[C@@H](Cc1ccc(O)cc1)C(=O)O)c1ccc2c(c1)nc(CN1CCC(c3cccc(OCc4ccc(Cl)cc4F)n3)CC1)n2C[C@@H]1CCO1` [Compound 51], with 134 nM; and `NC(=O)C[C@H](NC(=O)c1ccc2c(c1)nc(CN1CCC(c3cccc(OCc4ccc(Cl)cc4F)n3)CC1)n2CC1CCO1)C(=O)O` (stereo partly drawn) [Compound 52], with 12.8 nM.
`O=C(N[C@@H](Cc1cnc[nH]1)C(=O)O)c1ccc2c(c1)nc(CN1CCC(c3cccc(OCc4ccc(Cl)cc4F)n3)CC1)n2C[C@@H]1CCO1` [Compound 53] displayed a concentration for a half-maximal effect (EC50) of 114 nM.
As for `O=C(NCC(=O)N1CC[C@H](C(=O)O)C1)c1ccc2c(c1)nc(CN1CCC(c3cccc(OCc4ccc(Cl)cc4F)n3)CC1)n2C[C@@H]1CCO1` [Compound 54], the response was half-maximal at 79.7 nM (EC50).
`C[C@]12C[C@@H](C(=O)O)N(C(=O)CNC(=O)c3ccc4c(c3)nc(CN3CCC(c5cccc(OCc6ccc(Cl)cc6F)n5)CC3)n4C[C@@H]3CCO3)[C@@]1(C)C2` [Compound 55]: the response was half-maximal at 1.83 nM (EC50).
`N#Cc1ccc(COc2cccc(C3CCN(Cc4nc5cc(C(=O)NCC(=O)N6C[C@@H](O)C[C@H]6C(=O)O)ccc5n4C[C@@H]4CCO4)CC3)n2)c(F)c1` [Compound 56] showed a half-maximal effective concentration (EC50) of 0.97 nM.
`C[C@H](NC(=O)c1ccc2c(c1)nc(CN1CCC(c3cccc(OCc4ccc(Cl)cc4F)n3)CC1)n2C[C@@H]1CCO1)C(=O)N1C[C@H](O)C[C@H]1C(=O)O` [Compound 57]: the EC50 is 1.41 nM.
The figure for `CC1(C)C[C@@H](C(=O)O)N(C(=O)CNC(=O)c2ccc3c(c2)nc(CN2CCC(c4cccc(OCc5ccc(Cl)cc5F)n4)CC2)n3C[C@@H]2CCO2)C1` [Compound 58] is 4.35 nM.
Then `O=C(NCC(=O)N1C2CCC(C2)[C@H]1C(=O)O)c1ccc2c(c1)nc(CN1CCC(c3cccc(OCc4ccc(Cl)cc4F)n3)CC1)n2C[C@@H]1CCO1` (stereo partly drawn) [Compound 59], with 7.2 nM; and `O=C(NCC(=O)N1CCC[C@H]1C(=O)O)c1ccc2c(c1)nc(CN1CCC(c3cccc(OCc4ccc(Cl)cc4F)n3)CC1)n2C[C@@H]1CCO1` [Compound 60], with 22.3 nM.
`O=C(NCC(=O)N1CC[C@H]1C(=O)O)c1ccc2c(c1)nc(CN1CCC(c3cccc(OCc4ccc(Cl)cc4F)n3)CC1)n2C[C@@H]1CCO1` [Compound 61]: the half-maximal effective concentration (EC50) was found to be 6.75 nM.
The figure for `COC(=O)[C@@H]1C[C@H](O)CN1C(=O)CNC(=O)c1ccc2c(c1)nc(CN1CCC(c3cccc(OCc4ccc(Cl)cc4F)n3)CC1)n2C[C@@H]1CCO1` [Compound 63] is 0.49 nM; for `COC(=O)[C@@H]1CC(F)(F)CN1C(=O)CNC(=O)c1ccc2c(c1)nc(CN1CCC(c3cccc(OCc4ccc(Cl)cc4F)n3)CC1)n2C[C@@H]1CCO1` [Compound 64] it is 151 nM.
For the compound `C[C@@H](NC(=O)c1ccc2c(c1)nc(CN1CCC(c3cccc(OCc4ccc(Cl)cc4F)n3)CC1)n2C[C@@H]1CCO1)C(=O)N1C[C@@H](O)C[C@@H]1C(=O)O` [Compound 65], the EC50 was 1.75 nM.
The figure for `C[C@H](NC(=O)c1ccc2c(c1)nc(CN1CCC(c3cccc(OCc4ccc(Cl)cc4F)n3)CC1)n2C[C@@H]1CCO1)C(=O)N1CC(F)(F)C[C@H]1C(=O)O` [Compound 66] is 1.41 nM; for `O=C(NCC(=O)N1C[C@@H](O)[C@@H](O)C1)c1ccc2c(c1)nc(CN1CCC(c3cccc(OCc4ccc(Cl)cc4F)n3)CC1)n2C[C@@H]1CCO1` [Compound 67] it is 5.89 nM; for `COC(=O)[C@@H]1CC(F)(F)CN1C(=O)[C@H](C)NC(=O)c1ccc2c(c1)nc(CN1CCC(c3cccc(OCc4ccc(Cl)cc4F)n3)CC1)n2C[C@@H]1CCO1` [Compound 68] it is 142 nM.
The figure for `COC(=O)[C@@H]1CC(F)(F)CN1C(=O)CNC(=O)c1ccc2c(c1)nc(CN1CC=C(c3cccc(OCc4ccc(Cl)cc4F)n3)CC1)n2C[C@@H]1CCO1` [Compound 69] is 70.5 nM.
The figure for `O=C(NCC(=O)N1CC[C@H](O)C1)c1ccc2c(c1)nc(CN1CCC(c3cccc(OCc4ccc(Cl)cc4F)n3)CC1)n2C[C@@H]1CCO1` [Compound 70] is 1.9 nM; for `COC(=O)[C@@H]1CC(F)(F)CN1C(=O)[C@H](C)NC(=O)c1ccc2c(c1)nc(CN1CC=C(c3cccc(OCc4ccc(Cl)cc4F)n3)CC1)n2C[C@@H]1CCO1` [Compound 71] it is 132 nM; for `O=C(NCC(=O)N1CC(F)(F)C[C@H]1C(=O)O)c1ccc2c(c1)nc(CN1CC=C(c3cccc(OCc4ccc(Cl)cc4F)n3)CC1)n2C[C@@H]1CCO1` [Compound 72] it is 0.61 nM.
The compound `C[C@H](NC(=O)c1ccc2c(c1)nc(CN1CC=C(c3cccc(OCc4ccc(Cl)cc4F)n3)CC1)n2C[C@@H]1CCO1)C(=O)N1CC(F)(F)C[C@H]1C(=O)O` [Compound 73] came in with a 50% effective concentration (EC50) of 0.52 nM.
Then `COC(=O)C1CC(N(C)C)CN1C(=O)[C@H](C)NC(=O)c1ccc2c(c1)nc(CN1CCC(c3cccc(OCc4ccc(Cl)cc4F)n3)CC1)n2C[C@@H]1CCO1` (stereo partly drawn) [Compound 74], with over 10000 nM; and `COCCn1c(CN2CCC(c3cccc(OCc4ccc(Cl)cc4F)n3)CC2)nc2cc(C(=O)Nc3ccc(O)cc3)ccc21` [Compound 75], with over 10000 nM.
Then `O=C(NCc1ccc2[nH][nH]c(=O)c2c1)c1ccc2c(c1)nc(CN1CCC(c3cccc(OCc4ccc(Cl)cc4F)n3)CC1)n2C[C@@H]1CCO1` [Compound 76], with 9.04 nM.
As to `O=C(NCC(=O)N1CC[C@@H](O)C1)c1ccc2c(c1)nc(CN1CCC(c3cccc(OCc4ccc(Cl)cc4F)n3)CC1)n2C[C@@H]1CCO1` [Compound 77], the EC50 is 1.9 nM.
In turn, `Nc1ncc2c(ncn2C(=O)c2ccc3c(c2)nc(CN2CCC(c4cccc(OCc5ccc(Cl)cc5F)n4)CC2)n3C[C@@H]2CCO2)n1` [Compound 78] showed a 50% effective concentration (EC50) of 23.1 nM.
